24 compounds from patent EP1038880B1, “Androstanes and pregnanes for allosteric modulation of GABA receptor” (priority 1994, dated 1995) can be followed below.

Structures are written as SMILES. Several values for one entry are separate records, joined by “and”; a condition that tells them apart may be missing. Identical values can stand only once.

In test [1] the test system is metrazol induced convulsions. The test can be described thus: animal or person. To be noted: for responders at 10 mg/kg: Mus musculus, 10 min, 10 minutes prior to metrazol (85 mg/kg), read-out: % Protected; for % Protected: water; for % Protection: 60 mg/kg. Type of test: in vivo, mice. As for the experimental part:
Experiments were also performed to determine the physiological relevance of neuroactive steroid and GABA receptor interactions by assessing the ability of the compounds of and used in the invention to prevent metrazol induced convulsions in mice. Mice were injected with various doses of the test compounds of the invention, 10 minutes prior to the injection of metrazol. The time to onset of myoclomis (presence of forelimb clonic activity) induced by metrazol was determined by observing each mouse for a period of 30 minutes. […] Table 6: Antimetrazol Activity of Neuroactive Steroids in Mice
The anticonvulsant tests are similar to that described above. […] The number of animals with tonic and/or clonic convulsions was recorded. In the maximal electroshock test, 50 mA of current at 60 Hz was delivered through corneal electrodes for 200 msec to induce tonic seizure. The ability of compounds to abolish the tonic component was defined as the endpoint. General CNS depression potential was determined by a rotorod test 10 minutes after the injection of compounds where the number of mice staying on a rotating (6 rpm) rod for 1 minute in one of the three trials was determined. […] Table 7. Anticonvulsant Activity of Exemplified Neuroactive Steroids and those of Selected Clinically Useful Anticonvulsants in Mice

In the next test the target is GR complex. The test can be described thus: [35S]TBPS binding assay (inhibition of [35S]TBPS binding, cerebral cortex P2 homogenate). The following applies: for IC50: 2 nM [35S]TBPS, rat cerebral cortex P2 homogenate; for IMAX: maximum inhibition of [35S]TBPS binding. Details: species or system rat. The procedure, abridged: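 Rat (male Sprague-Dawley) cortical P2 homogenate (0.5 mg protein) in 50 mM Na/K phosphate pH 7.4, 200 mM NaCl, incubated with 2 nM [35S]TBPS plus steroid test compounds (DMSO) in presence of GABA plus (+)bicuculline, 25°C, 90 min. Filtration, scintillation counting; nonspecific binding defined with […].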

In test [2] the test system is N.I.H. Swiss-Webster mice. The test can be described thus: Elevated plus-maze. Type of test: in vivo. To be noted: for response vs control in vivo at 10 mg/kg: Mus musculus, ip, read-out: % Control; for % Control: PO, 10 mg/kg, water. The source says:
The theoretical basis for the elevated plus-maze test is similar to that of the light/dark transition test. […] The apparatus consists of two open-arms and two enclosed-arms. The elevated plus-maze test allows for two measures of anxiety, the number of entries into the open-arms and the time spent on the open-arms, both expressed as a percentage of the total number of entries and time spent in/on both the open-arms and enclosed-arms.
Male N.LH. Swiss-Webster mice (Harlan, Indianapolis, IN) weighing 15-20 g were housed four per cage in polyethylene cages with sawdust bedding. The colony mom was environmentally controlled (22°C) with a 12^- hr light/dark cycle (0600-1800 hr). Food and water were available ad libitum, except during testing. The experiments were run from 0700-1500 hr and groups were counterbalance for time of day effects. Mice were only administered drug or vehicle once.
The apparatus included two open arms perpendicular to two enclosed arms elevated 50 cm from the floor. Each arm was 50 cm long and the walls of the enclosed arms were 40 cm tall. The maze was made completely of black plexiglass. Incandescent 200 W light bulbs were above each of the open arms to produce a strong contrast between the open arms and the enclosed arms.
Ten minutes after an injection, the N.I.H. Swiss-Webster mice were placed in the center of the plus-maze facing an open arm. During the 5 min test period, the number of entries onto the open arms and the enclosed arms, and the time spent in the open arms and enclosed arms were measured. All four paws had to be within an arm for the dependent variable to be measured. Therefore, the time spent in the center of the maze is not counted, so the total time spent in the open arms and the enclosed arms may not equal 5 min.

One may read the IC50 as the concentration at which inhibition is half-maximal. On to `CC(=O)C1CCC2C3CCC4CC(O)(C#CC(C)O)CCC4(C)C3CCC12C` (racemic) [3β-[3'(R/S)-hydroxy-1'-butynyl]-3α-hydroxy-5α-pregnan-20-one], for which the responders at 10 mg/kg in test [1] (IP, 10 mg/kg) was 50%. Moreover, at GR complex, the IC50 is 144 nM and 202 nM; the IMAX was 99% and 102%.

Regarding `CC(=O)C1CCC2C3CCC4CC(O)(C#CCC(C)O)CCC4(C)C3CCC12C` (racemic) [3β-[4'(R/S) hydroxypentynyl]-3α-hydroxy-5β-pregnan-20-one], the responders at 10 mg/kg in test [1] (IP, 10 mg/kg) came out at 87.5%. Besides, at GR complex, the IC50 is 71 nM and 94 nM; the IMAX was 103% and 104%.

With `CC(=O)[C@H]1CC[C@H]2[C@@H]3CC[C@@H]4C[C@@](O)(C#Cc5ccccn5)CC[C@]4(C)[C@H]3CC[C@]12C` [3α-Hydroxy-3β-(2-pyridyl)ethynyl-5β-pregnan-20-one], in test [1] (IP, 10 mg/kg), the responders at 10 mg/kg stood at 37.5%. Also, the response vs control in vivo at 10 mg/kg in test [2] was 123%. On GR complex, this compound displayed an IC50 of 108 nM and an IMAX of 98%.

With `CC(=O)[C@H]1CC[C@H]2[C@@H]3CC[C@@H]4C[C@@](O)(C#CCn5ccnn5)CC[C@]4(C)[C@H]3CC[C@]12C` [3α-Hydroxy-3β-[3-(1'H-1,2,3-triazol-1'-yl)-1-propynyl]-5β-pregnan-20-one], the responders at 10 mg/kg in test [1] (IP, 10 mg/kg) was found to be 25%. The response vs control in vivo at 10 mg/kg in test [2] is 116%. At GR complex, this compound had an IC50 of 655 nM and an IMAX of 102%.

Turning to `CC(=O)[C@H]1CC[C@H]2[C@@H]3CC[C@@H]4C[C@@](O)(C#CCOc5ccncc5)CC[C@]4(C)[C@H]3CC[C@]12C` [3α-Hydroxy-3β-[3-(4'-pyridinyloxy)-1-propynyl]-5β-pregnan-20-one], in test [1] (IP, 10 mg/kg), the responders at 10 mg/kg was determined as 12.5%. Further, on GR complex, the IC50 was 465 nM and the IMAX is 94%.

For `C[C@@]1(O)CC[C@@]2(C)[C@@H](CC[C@@H]3[C@@H]2CC[C@]2(C)[C@@H](C(=O)Cn4cncn4)CC[C@@H]32)C1` [3α-Hydroxy-3β-methyl-21-(1',2',4'-triazolyl)-5α-pregnan-20-one], in test [1] (IP, 10 mg/kg), the responders at 10 mg/kg worked out at 87.5%. Also, in test [2], the response vs control in vivo at 10 mg/kg came to 153%. At GR complex, this compound displayed an IC50 of 125 nM and an IMAX of 105%.

`COc1ccccc1C#C[C@@]1(O)CC[C@@]2(C)[C@H](CC[C@@H]3[C@@H]2CC[C@]2(C)[C@@H](C(C)=O)CC[C@@H]32)C1` [3α-hydroxy-3β-(2'-methoxyphenyl)ethynyl-5β-pregnan-20-one]: the responders at 10 mg/kg in test [1] (IP, 10 mg/kg) was found to be 12.5%. Besides, the response vs control in vivo at 10 mg/kg in test [2] stood at 152%. Besides, on GR complex, the IC50 came to 238 nM and the IMAX was 99%.

For `CC(=O)[C@H]1CC[C@H]2[C@@H]3CC[C@@H]4C[C@@](O)(C#Cc5cccs5)CC[C@]4(C)[C@H]3CC[C@]12C` [3α-hydroxy-3β-(2'-thienyl)ethynyl-5β-pregnan-20-one], the responders at 10 mg/kg in test [1] (IP, 10 mg/kg) is 37.5%. For the same compound, the response vs control in vivo at 10 mg/kg in test [2] was found to be 148%. At GR complex, this compound gave an IC50 of 59 nM and an IMAX of 100%.

For `CC(=O)[C@H]1CC[C@H]2[C@@H]3CC[C@@H]4C[C@@](O)(C#Cc5ccc(C)cc5)CC[C@]4(C)[C@H]3CC[C@]12C` [3α-hydroxy-3β-(4'-methylphenylethynyl)-5β-pregnan-20-one], in test [1] (IP, 10 mg/kg), the responders at 10 mg/kg stood at 75%. Moreover, the response vs control in vivo at 10 mg/kg in test [2] worked out at 148%. Besides, on GR complex, the IC50 is 88 nM and the IMAX is given as 84%.

With `CC(=O)[C@H]1CC[C@H]2[C@@H]3CC[C@@H]4C[C@@](O)(C#CCn5cccn5)CC[C@]4(C)[C@H]3CC[C@]12C` [3α-hydroxy-3β-[3-(1'H-pyrazol-1'-yl)-1-propynyl]-5β-pregnan-20-one], the responders at 10 mg/kg in test [1] (IP, 10 mg/kg) was found to be 25%. Moreover, in test [2], the response vs control in vivo at 10 mg/kg turned out to be 116%. Further, at GR complex, the IC50 was 81 nM and the IMAX is on record as 98%.

As for `C#CCOCC#C[C@@]1(O)CC[C@@]2(C)[C@H](CC[C@@H]3[C@@H]2CC[C@]2(C)[C@@H](C(C)=O)CC[C@@H]32)C1` [3α-hydroxy-3β-[3-(2'-propynyloxy)-1-propynyl]-5β-pregnan-20-one], the responders at 10 mg/kg in test [1] (IP, 10 mg/kg) is 50%. Also, the response vs control in vivo at 10 mg/kg in test [2] came to 178%. Besides, on GR complex, the IC50 is 28 nM and the IMAX is on record as 105%.

For the compound `CC(=O)CCCC#C[C@@]1(O)CC[C@@]2(C)[C@H](CC[C@@H]3[C@@H]2CC[C@]2(C)[C@@H](C(C)=O)CC[C@@H]32)C1` [3α-hydroxy-3β-[6'-oxo-1'-heptynyl]-5β-pregnan-20-one], in test [1] (IP, 10 mg/kg), the responders at 10 mg/kg stood at 62.5%. For the same compound, the response vs control in vivo at 10 mg/kg in test [2] is 130%. In addition, at GR complex, the IC50 is 90 nM and the IMAX is 101%.

As for `C[C@@]1(O)CC[C@@]2(C)[C@@H](CC[C@@H]3[C@@H]2CC[C@]2(C)[C@@H](C(=O)Cn4ccnc4)CC[C@@H]32)C1` [3α-hydroxy-21-(1'-imidazolyl)-3β-methyl-5α-pregnan-20-one], in test [1] (IP, 10 mg/kg), the responders at 10 mg/kg was found to be 75%. Also, the response vs control in vivo at 10 mg/kg in test [2] came to 144%. For the same compound, on GR complex, the IC50 was 97 nM and the IMAX stood at 95%.

`CC(=O)c1ccc(C#C[C@@]2(O)CC[C@@]3(C)[C@@H](CC[C@@H]4[C@@H]3CC[C@]3(C)[C@@H](C(=O)COC(=O)CCC(=O)[O-])CC[C@@H]43)C2)cc1.[Na+]` [3β-(4'-Acetylphenylethynyl)-3α,21-dihidroxy-5α-pregnan-20-one 21-hemisuccinate sodium salt]: in test [1] (PO, 10 mg/kg), the “% Protected” value is 80%. In test [2], the “% Control” value came out at 166%.

Regarding `CC(=O)c1ccc(C#CC2(O)CCC3(C)C(CCC4C3CCC3(C)C(C(=O)COC(=O)CCC(=O)[O-])CCC43)C2)cc1.[Na+]` (stereo not drawn) [3β-(4'-Acetylphenylethynyl)-3α,21-dihydroxy-5β-pregnan-20-one 21-hemisuccinate sodium salt], the “% Protected” value in test [1] (PO, 10 mg/kg) amounted to 75%. Besides, the “% Control” value in test [2] came out at 248%.

Take `CC(=O)OCCCC#C[C@@]1(O)CC[C@@]2(C)[C@H](CC[C@@H]3[C@@H]2CC[C@]2(C)[C@@H](C(C)=O)CC[C@@H]32)C1` [3β-(5'-Acetoxy-1'-pentynyl)-3α-hydroxy-5β-pregnan-20-one]: the responders at 10 mg/kg in test [1] (IP, 10 mg/kg) worked out at 12.5%. Moreover, at GR complex, the IC50 turned out to be 96 nM and the IMAX turned out to be 98%.

On to `CC(=O)[C@H]1CC[C@H]2[C@@H]3CC[C@@H]4C[C@@](O)(C#CCCCC#N)CC[C@]4(C)[C@H]3CC[C@]12C` [3β-(5-Cyano-1-pentynyl)-3α-hydroxy-5β-pregnan-20-one], for which the responders at 10 mg/kg in test [1] (IP, 10 mg/kg) was determined as 25%. For the same compound, at GR complex, the IC50 worked out at 158 nM and the IMAX stood at 100%.

As for `CC(=O)C1CCC2C3CCC4CC(OC(=O)C(C)C)CCC4(C)C3CCC12C` (centres unmarked) [Example 2-Propyl], in test [1] (1hr, IP), the “% Protection” value amounted to 75%.

As to `CC(=O)C1CCC2C3CCC4CC(OC(=O)c5cccnc5)CCC4(C)C3CCC12C` (centres unmarked) [Example 3-Pyridyl], in test [1] (IP, 20hour), the “% Protection” value was 50(20hour) %.

In the case of `CCCC(CCC)C(=O)OC1CCC2(C)C(CCC3C2CCC2(C)C(C(C)=O)CCC32)C1` (centres unmarked) [Example 4-Heptyl], the “% Protection” value in test [1] (IP, 4 hour) is 16 (4 hour) %.

`CC(=O)OC1CCC2(C)C(CCC3C2CCC2(C)C(C(C)=O)CCC32)C1` (centres unmarked) [Methyl]: the “% Protection” value in test [1] (1hr, IP) stood at 25%.

On to `CC(=O)[C@H]1CC[C@H]2[C@@H]3CC[C@H]4C[C@H](OC(=O)c5ccccc5)CC[C@]4(C)[C@H]3CC[C@]12C` [Phenyl], for which, in test [1] (1hr, IP), the “% Protection” value was found to be 33%.

In the case of `CCCC(=O)OC1CCC2(C)C(CCC3C2CCC2(C)C(C(C)=O)CCC32)C1` (centres unmarked) [Propyl], the “% Protection” value in test [1] (1hr, IP) turned out to be 75%.

For the compound `CC12CCC3C4CCC(O)(C(F)(F)F)CC4CCC3C1CCC2C(=O)CSS(=O)(=O)[O-].[Na+]` (stereo not drawn) [Sodium S-(3α-hydroxy-3β-trifluoromethyl-5β-19-norpregnan-20-on-21-yl) thiosulfate], the “% Protected” value in test [1] (IP, 40 mg/kg) came out at 37.5%. At GR complex, this compound showed an IC50 of 325 nM and an IMAX of 98%.
